# Measurements published in PMC7529893, “Structural basis for substrate recognition and chemical inhibition of oncogenic MAGE ubiquitin ligases” (Nature Communications, 2020).
# Molecular target: T1, MAGE-A11:PCF11 interaction (GST-MAGE-A11 and FAM-PCF11_4) (Homo sapiens, UniProt P43364)
# T1 construct: GST-MAGE-A11 MHD (human MAGE-A11 MHD amino acid 218-429); made in house; host or cells: E. coli BL21(DE3)
# T1 sequence (P43364 218-429): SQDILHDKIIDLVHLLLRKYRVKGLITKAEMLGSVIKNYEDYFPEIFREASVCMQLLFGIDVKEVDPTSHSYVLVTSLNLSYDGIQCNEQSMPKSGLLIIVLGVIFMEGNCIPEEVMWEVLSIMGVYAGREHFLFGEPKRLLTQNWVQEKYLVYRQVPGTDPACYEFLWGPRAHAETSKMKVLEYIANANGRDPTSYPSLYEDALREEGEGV
# Experiment: TR-FRET primary / single point screen at 15 µM
# Assay type: binding
# Conditions: single point TR-FRET screening of 797 quinoline compounds against MAGE-A11:PCF11
# Summary of the method: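 TR-FRET 520/490 nm emission ratio was read after 90 min at room temperature. Wells held 5 nM GST-MAGE-A11, 5 nM Tb-anti-GST, 200 nM FAM-PCF11_4 and 15 µM compound in Tris pH 7.5 buffer with MgCl2, BSA and DTT. %Inhibition was scaled to DMSO and minus-MAGE-A11 controls.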
row,percent inhibition (TR-FRET),SMILES
1,39.8725,FC(F)(F)Oc1ccc(CN(CCCCNc2ccnc3cc(Cl)ccc23)Cc2ccccc2)cc1 [SJ000520451]
2,-164.134,CCCN(CCCNc1c2ccc(Cl)cc2nc2ccc(OC)cc12)Cc1cccs1 [SJ000520920]
3,-2.393,COc1ccc2ncc(C(=O)c3ccccc3)c(N3CCN(C)CC3)c2c1 [SJ000247245]
4,-16.9013,Cc1ccc(S(=O)(=O)c2cnc3ccc(F)cc3c2N2CCN(c3ccccc3)CC2)cc1C [SJ000117052]
5,-2.128,C=CCOCC(O)CN1CCN(c2cc(C(F)(F)F)nc3ccccc23)CC1 (centres unmarked) [SJ000228017]
6,22.0375,Clc1ccc2c(NCCCCN(Cc3ccccc3)Cc3ccc(Br)s3)ccnc2c1 [SJ000312688]
7,-298.775,COc1ccc2nc3cc(Cl)ccc3c(NCCCNCc3c(F)cccc3OC)c2c1 [SJ000520915]
8,-264.327,O=C(CN1CCN(C(=O)c2ccccc2)CC1)Nc1c2c(nc3ccccc13)N(c1cccc(Cl)c1)CC2 [SJ000111683]
9,-3.448,CCN1CCN(c2c(S(=O)(=O)c3ccccc3)cnc3ccc(C)cc23)CC1 [SJ000083956]
10,26.3784,FC(F)(F)c1cccc(CN(CCCCNc2ccnc3cc(Cl)ccc23)Cc2ccccc2)c1 [SJ000520455]
11,3.285,CN(C)CCNc1c2c(nc3ccccc13)CCC2 [SJ000013622]
12,15.1059,Cc1[nH]cnc1CN(CCCCNc1ccnc2cc(Cl)ccc12)Cc1ccccc1 [SJ000520428]
13,18.3966,Clc1ccc2c(NCCNCC[C@H]3CC[C@]4(CC3)OO[C@]3(O4)C4CC5CC(C4)CC3C5)ccnc2c1 [SJ000578381]
14,-264.817,CCCN(CCCNc1c2ccc(Cl)cc2nc2ccc(OC)cc12)CC(C)CC (centres unmarked) [SJ000520959]
15,25.5382,CCC(CC)CN(CCCCNc1ccnc2cc(Cl)ccc12)Cc1ccccc1 [SJ000361195]
16,26.0268,Cc1cc(C)c(CN(CCCCNc2ccnc3cc(Cl)ccc23)Cc2ccccc2)c(C)c1 [SJ000361193]
17,11.7451,COc1ccc(CN2CCC(Nc3ccnc4cc(Cl)ccc34)CC2)cc1OC [SJ000523103]
18,6.634,COc1ccc(O)c(CN(CCCCNc2ccnc3cc(Cl)ccc23)Cc2ccccc2)c1 [SJ000312696]
19,-290.163,COc1ccc2nc3cc(Cl)ccc3c(NCCCNCc3cc(C(F)(F)F)ccc3OC)c2c1 [SJ000521002]
20,2.575,CCOC(=O)c1cnc2c(Cl)c(Cl)ccc2c1NCCN(C)C [SJ000027266]

row,percent inhibition (TR-FRET),SMILES
1,-163.904,CCCN(CCCNc1c2ccc(Cl)cc2nc2ccc(OC)cc12)CC1CCCCC1 [SJ000520938]
2,-117.531,CCCN(CCCNc1c2ccc(Cl)cc2nc2ccc(OC)cc12)Cc1nccs1 [SJ000522988]
3,-241.432,CCCN(CCCNc1c2ccc(Cl)cc2nc2ccc(OC)cc12)Cc1ccc(OC)cc1 [SJ000520943]
4,3.238,CCc1ccc2ncc(S(=O)(=O)c3ccccc3)c(N3CCN(CC)CC3)c2c1 [SJ000083957]
5,2.741,CCN(CC)CC(=O)Nc1c2c(nc3ccccc13)CCCC2 [SJ000019523]
6,11.7837,CCN(CC)CC(=O)Nc1c2c(nc3ccccc13)N(C)CC2 [SJ000331537]
7,-141.659,CCCN(CCCNc1c2ccc(Cl)cc2nc2ccc(OC)cc12)Cc1ccc(F)cc1 [SJ000520946]
8,21.522,CN(C)c1ccc(CN(CCCCNc2ccnc3cc(Cl)ccc23)Cc2ccccc2)cc1 [SJ000522727]
9,14.9636,Clc1ccc2c(NCCCCN(Cc3ccccc3)Cc3ccc(Br)o3)ccnc2c1 [SJ000312684]
10,-15.3715,COc1ccccc1N1CCN(c2c(S(=O)(=O)c3ccc(Cl)cc3)cnc3ccc(C)cc23)CC1 [SJ000117070]
11,-267.24,CCCN(CCCNc1c2ccc(Cl)cc2nc2ccc(OC)cc12)CCCc1ccccc1 [SJ000520958]
12,-408.139,COc1ccc2nc3cc(Cl)ccc3c(NCCCNCc3cccc(C(F)(F)F)c3)c2c1 [SJ000520990]
13,-5.573,CN1CCN(c2c(C(=O)c3ccccc3)cnc3ccc(Cl)cc23)CC1 [SJ000247338]
14,-451.494,CCC(C)CNCCCNc1c2ccc(Cl)cc2nc2ccc(OC)cc12 (centres unmarked) [SJ000361093]
15,-154.43,CCCN(CCCNc1c2ccc(Cl)cc2nc2ccc(OC)cc12)Cc1ccc([N+](=O)[O-])s1 [SJ000522735]
16,17.3464,Clc1ccc2c(NCCCCN(Cc3ccccc3)Cc3ccccc3)ccnc2c1 [SJ000522718]
17,-1.072,Cc1cc(NC(=O)CN2CCN(C(=O)c3ccco3)CC2)c2ccccc2n1 [SJ000111679]
18,4.43,CCN1CCN(c2c(S(=O)(=O)c3ccccc3)cnc3ccc(Cl)cc23)CC1 [SJ000083960]
19,-6.809,CCN1CCN(c2c(S(=O)(=O)c3ccc(Cl)cc3)cnc3cc(OC)c(OC)cc23)CC1 [SJ000083970]
20,28.2792,Clc1ccc2c(NCCCCN(Cc3ccccc3)Cc3ccc[nH]3)ccnc2c1 [SJ000312692]

# Same assay, conditions: single point TR-FRET screening of quinoline compounds against MAGE-A11:PCF11; 15 µM
row,percent inhibition (TR-FRET),SMILES
1,15.9461,c1ccc(CCc2ccc3c(NCCCNCc4ccco4)ccnc3c2)cc1 [SJ000311254]
2,26.4363,CCCN(CCCNc1ccnc2cc(C(F)(F)F)ccc12)Cc1ccc(F)cc1 [SJ000523070]
3,26.5568,CCCCCN(CCCNc1ccnc2cc(Cl)ccc12)Cc1ccccc1 [SJ000361173]
4,32.3298,CCCN(CCCNc1ccnc2cc(C(F)(F)F)ccc12)CCC(C)(C)C [SJ000520476]
5,14.4523,Cc1ccc(CNCCCNc2ccnc3cc(C(F)(F)F)ccc23)o1 [SJ000361109]
6,21.6545,O=[N+]([O-])c1ccccc1-c1ccc(CNCCCNc2ccnc3cc(Cl)ccc23)o1 [SJ000523068]
7,2.84,Cc1ccc(CN(CCCNc2ccnc3cc(Cl)ccc23)Cc2ccccc2)o1 [SJ000312669]
8,30.2293,CCCN(CCCNc1ccnc2cc(Cl)ccc12)Cc1ccc(-c2ccccc2)cc1 [SJ000523039]
9,73.499,CC(C)(C)c1ccc(-c2ccc3c(NCCCNCc4ccco4)ccnc3c2)cc1 [SJ000311286]
10,16.5535,CCC(CC)CNCCCNc1ccnc2cc(Cl)ccc12 [SJ000361103]
11,3.83,CCCN(CCCNc1ccnc2cc(C(F)(F)F)ccc12)Cc1ccc(Cl)cc1Cl [SJ000523078]
12,0.2567,CCCN(CCCNc1c2ccc(Cl)cc2nc2ccc(OC)cc12)Cc1cccnc1Br [SJ000522977]
13,4.828,CCCN(CCCNc1ccnc2cc(Cl)ccc12)Cc1c[nH]c(C)n1 [SJ000522990]
14,4.988,Clc1ccc2c(NCCCNCc3nccs3)ccnc2c1 [SJ000521023]
15,23.9069,CCCN(CCCNc1ccnc2cc(C(F)(F)F)ccc12)Cc1ccc(C)o1 [SJ000361261]
16,-5.573,Clc1ccc2c(NCCCN(Cc3ccccc3)Cc3ccncc3)ccnc2c1 [SJ000312679]

row,percent inhibition (TR-FRET),SMILES
1,-1.532,COc1ccc2nc3cc(Cl)ccc3c(NCCCNCc3ccc(N(C)C)c4ccccc34)c2c1 [SJ000523028]
2,2.045,CCCN(CCCNc1c2ccc(Cl)cc2nc2ccc(OC)cc12)Cc1cc(F)cc(F)c1O [SJ000522982]
3,12.9099,CCCN(CCCNc1ccnc2cc(Cl)ccc12)Cc1cccc(C#N)c1 [SJ000522763]
4,22.2507,CCCCCCNCCCNc1ccnc2cc(Cl)ccc12 [SJ000361120]
5,19.8658,CCCN(CCCNc1ccnc2cc(Cl)ccc12)Cc1c(F)c(F)c(F)c(F)c1F [SJ000522748]
6,2.945,CCOC(=O)c1cnc2ccc(OC)cc2c1NCCCN1CCOCC1 [SJ000127046]
7,17.1364,COC(=O)CCCCCN(CCCNc1ccnc2cc(Cl)ccc12)Cc1ccccc1 [SJ000520429]
8,10.7073,CCOC(=O)c1cnc2ccc(C(=O)OC)cc2c1NCCCN1CCOCC1 [SJ000279665]
9,21.7574,CCCN(CCCNc1ccnc2cc(C(F)(F)F)ccc12)Cc1ccc(OC)c(F)c1 [SJ000521013]
10,52.9917,Clc1ccc2c(NCCCNCc3ccc[nH]3)ccnc2c1 [SJ000575192]
11,25.4969,Clc1ccc(CN(CCCNc2ccnc3cc(Cl)ccc23)Cc2ccccc2)c(Cl)c1 [SJ000361184]
12,21.0583,Clc1ccc2c(NCCCN(Cc3ccccc3)CC3CC3)ccnc2c1 [SJ000357483]
13,10.0613,CCOC(=O)c1cnc2c(C(F)(F)F)cccc2c1NCCCN1CCOCC1 [SJ000131358]
14,4.8836,CCCN(CCCNc1ccnc2cc(Cl)ccc12)CCc1ccccc1 [SJ000357574]
15,32.9599,c1coc(CNCCCNc2ccnc3cc(C4CCCCC4)ccc23)c1 [SJ000311262]
